Columns and labels:
Experiment in all cases: Biochemical Evaluation
Prolyl endopeptidase FAP = biological target: T1, Prolyl endopeptidase FAP (Homo sapiens, UniProt Q12884)
T1 sequence (Q12884 whole entry): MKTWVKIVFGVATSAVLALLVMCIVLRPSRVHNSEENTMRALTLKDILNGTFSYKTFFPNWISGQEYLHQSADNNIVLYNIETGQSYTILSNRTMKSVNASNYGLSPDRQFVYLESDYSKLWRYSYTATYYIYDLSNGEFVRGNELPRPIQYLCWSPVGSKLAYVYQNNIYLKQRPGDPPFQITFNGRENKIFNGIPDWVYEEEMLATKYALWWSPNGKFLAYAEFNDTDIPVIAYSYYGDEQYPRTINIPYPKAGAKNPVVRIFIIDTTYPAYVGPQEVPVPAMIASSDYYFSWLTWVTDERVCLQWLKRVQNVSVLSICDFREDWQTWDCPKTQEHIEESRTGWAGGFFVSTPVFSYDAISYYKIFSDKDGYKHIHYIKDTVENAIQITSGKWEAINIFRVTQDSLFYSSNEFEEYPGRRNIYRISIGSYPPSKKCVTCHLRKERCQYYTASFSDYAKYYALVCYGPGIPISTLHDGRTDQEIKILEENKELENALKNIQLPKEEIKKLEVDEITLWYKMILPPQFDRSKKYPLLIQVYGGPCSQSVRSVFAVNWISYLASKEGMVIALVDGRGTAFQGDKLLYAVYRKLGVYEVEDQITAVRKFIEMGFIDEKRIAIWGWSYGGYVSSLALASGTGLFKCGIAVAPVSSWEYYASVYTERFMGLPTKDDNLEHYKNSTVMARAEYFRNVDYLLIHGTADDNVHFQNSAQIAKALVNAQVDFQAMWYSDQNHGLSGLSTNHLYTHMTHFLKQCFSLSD
Description: (§1) Table 1 and 2: The compounds were biochemically evaluated against a panel consisting of all enzymatically active DASH enzymes (DPP4, DPP8, DPP9, DPP2, FAP) and PREP.

Dipeptidyl peptidase 2 = Dipeptidyl peptidase 2 (Homo sapiens, UniProt Q9UHL4)
Description: as §1

Prolyl endopeptidase = biological target: T2, Prolyl endopeptidase (Homo sapiens, UniProt P48147)
T2 sequence (P48147 whole entry): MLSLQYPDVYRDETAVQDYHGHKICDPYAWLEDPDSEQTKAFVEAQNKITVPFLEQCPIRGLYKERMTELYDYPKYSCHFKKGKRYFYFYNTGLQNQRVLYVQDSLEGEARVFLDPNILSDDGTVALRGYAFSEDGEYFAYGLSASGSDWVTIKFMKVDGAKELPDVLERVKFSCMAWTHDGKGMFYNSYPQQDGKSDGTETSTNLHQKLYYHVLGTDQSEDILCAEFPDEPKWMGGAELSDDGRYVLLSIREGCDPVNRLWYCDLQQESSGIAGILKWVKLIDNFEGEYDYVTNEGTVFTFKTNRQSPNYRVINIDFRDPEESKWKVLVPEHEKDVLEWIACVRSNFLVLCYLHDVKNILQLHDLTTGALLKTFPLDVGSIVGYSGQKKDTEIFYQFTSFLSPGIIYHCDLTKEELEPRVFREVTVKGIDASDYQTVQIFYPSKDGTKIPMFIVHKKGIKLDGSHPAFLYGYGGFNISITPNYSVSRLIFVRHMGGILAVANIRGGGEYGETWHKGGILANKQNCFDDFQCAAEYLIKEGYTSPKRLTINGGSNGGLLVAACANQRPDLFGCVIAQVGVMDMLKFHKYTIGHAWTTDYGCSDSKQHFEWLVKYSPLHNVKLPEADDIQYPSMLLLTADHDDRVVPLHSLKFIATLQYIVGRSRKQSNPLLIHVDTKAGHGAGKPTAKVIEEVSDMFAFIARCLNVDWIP
Description: as §1

IC50 (Prolyl endopeptidase FAP): > 10 µM
IC50 (Dipeptidyl peptidase 2): > 5 µM
IC50 (Prolyl endopeptidase): > 10 µM
SMILES: CC(C)(C)OC(=O)NC12CC3CC(CC(N)(C3)C1)C2 [US20250353833, Compound 4]
